From ChEMBL document CHEMBL4184320, “Optimization of Selective Mitogen-Activated Protein Kinase Interacting Kinases 1 and 2 Inhibitors for the Treatment of Blast Crisis Leukemia” (J Med Chem, 2018) come the findings set out here.

In brackets after ≈: the same amount, converted by molar mass.

Series [1] concerns the target Cytochrome P450 2D6 (Homo sapiens, UniProt P10635). Kind of series: Inhibition of CYP2D6 in human liver microsomes using dextromethorphan as substrate preincubated for 5 mins followed by NADPH addition by LC-MS/MS analysis. The class given is ADME. On the technique in general: Liver microsomes are vesicles of endoplasmic reticulum, rich in cytochrome P450 enzymes.
A short description of series [2]: Octanol-phosphate buffer partition coefficient, logD of compound at pH 7.4 by HPLC-UV analysis. It is filed as physicochemical.
The target in series [3] is MAP kinase-interacting serine/threonine-protein kinase 2 (Homo sapiens, UniProt Q9HBH9).
Description: Inhibition of GST-tagged MNK2 (72 to 385 residues) (unknown origin) expressed in Escherichia coli BL21(DE3) using JH3 peptide as substrate preincubated for 10 mins followed by substrate and ATP addition measured after 60 mins
Series [4] deals with MAP kinase-interacting serine/threonine-protein kinase 1 (Homo sapiens, UniProt Q9BUB5).
Description: Inhibition of GST-tagged MNK1 (37 to 341 residues) (unknown origin) expressed in Escherichia coli BL21(DE3) using JH3 peptide as substrate preincubated for 10 mins followed by substrate and ATP addition measured after 60 mins
The nature of series [5]: Protein binding in human plasma at […] after 5 hrs by LC-MS/MS analysis. It is filed as ADME, cell-free. To be noted: read-out: PPB (converted).
Series [6] can be described thus: Permeability of the compound by PAMPA. It is filed as ADME. As to conditions: read-out: permeability. For orientation: In PAMPA a lipid-coated filter parts donor from acceptor wells.
Series [7] is described as follows: in vitro. As to conditions: human, liver microsomes.
Description: Half life in human liver microsomes at 1 uM in presence of NADPH by LC-MS/MS analysis
Series [8] has as its target Cytochrome P450 3A4 (Homo sapiens, UniProt P08684).
Description: Inhibition of CYP3A4 in human liver microsomes using midazolam as substrate preincubated for 5 mins followed by NADPH addition measured after 5 mins by LC-MS/MS analysis
The target in series [9] is MAP kinase-interacting serine/threonine-protein kinase 1/2 (Homo sapiens, UniProt Q9HBH9+Q9BUB5). As to the kind of experiment: Inhibition of MNK1/2 in human HeLa cells assessed as decrease in eIF4E phosphorylation at Ser209 after 2 hrs by AlphaScreen assay. It is filed as cell-based. (In general: Alpha assays give light when donor and acceptor beads are brought close together.)

Series [10] in a line: in vitro. To be noted: mouse, liver microsomes.
Description: Half life in mouse liver microsomes at 1 uM in presence of NADPH by LC-MS/MS analysis
Series [11] can be described thus: Apparent permeability of the compound across apical side to basolateral side in human Caco2 cells by LC-MS/MS analysis. It is filed as ADME, cell-based. As to conditions: Caco-2.
Series [12] in a line: Thermodynamic solubility of the compound at pH 4 to 7.4 pION buffer after 18 hrs by UV spectrophotometric analysis. To be noted: read-out: Therm_solubility. It is filed as physicochemical.
Series [13] in a line: Efflux ratio of apparent permeability in human Caco2 cells by LC-MS/MS analysis. The class given is ADME, cell-based. As to conditions: Caco-2.
Series [14] can be described thus: Protein binding in mouse plasma at […] after 5 hrs by LC-MS/MS analysis. To be noted: read-out: PPB (converted). It is filed as ADME, cell-free.
Series [15] in a line: AUClast in CD-1 mouse at 5 mg/kg, po administered via gavage as single dose by LC-MS/MS analysis. To be noted: in vivo. Also noted: dose 5 mg/kg, time 0 - last, route oral. The class given is ADME, organism-based.
Series [16] in a line: Cmax in CD-1 mouse at 5 mg/kg, po administered via gavage as single dose by LC-MS/MS analysis. It is filed as ADME, organism-based. Also noted: dose 5 mg/kg, route oral. To be noted: in vivo.
For series [17], the target named is Tyrosine-protein kinase ABL1 (Homo sapiens) (UniProt P00519). As to the kind of experiment: Inhibition of human ABL1 (S229 to K512 residues) expressed in mammalian expression system at 1 uM by KINOMEscan assay relative to control.
Series [18] deals with Dual specificity mitogen-activated protein kinase kinase 2 (Homo sapiens) (UniProt P36507). Kind of series: Inhibition of human MEK2 (M1 to V400 residues) expressed in mammalian expression system at 1 uM by KINOMEscan assay relative to control.
Series [19] deals with Proto-oncogene tyrosine-protein kinase receptor Ret (Homo sapiens) (UniProt P07949). As to the kind of experiment: Inhibition of human RET (E713 to D1014 residues) expressed in bacterial expression system at 1 uM by KINOMEscan assay relative to control.
Series [20] deals with Dual specificity mitogen-activated protein kinase kinase; MEK1/2 (Homo sapiens) (UniProt P36507+Q02750). As to the kind of experiment: Inhibition of MEK (unknown origin) at 1 uM by KINOMEscan assay relative to control. It is filed as protein assay.
Series [21] addresses Dual specificity mitogen-activated protein kinase kinase 1 (Homo sapiens) (UniProt Q02750). Kind of series: Inhibition of human MEK1 (M1 to V393 residues) expressed in mammalian expression system at 1 uM by KINOMEscan assay relative to control.
Series [22] relates to Tyrosine-protein kinase ABL1 (Homo sapiens), P00519 [E255K]. Kind of series: Inhibition of human ABL1 E255K mutant (S229 to K512 residues) expressed in mammalian expression system at 1 uM by KINOMEscan assay relative to control.

As a reminder, the IC50 is the concentration at which inhibition is half-maximal. A word on the logD: it is the decadic logarithm of the distribution of all forms, ionised or not, between an organic phase and buffer at a given pH. The half-life is the time needed for the level to fall by half in the phase considered. As usually defined, the Papp A→B is the apparent permeability from the apical to the basolateral side of a cell layer. The term efflux ratio denotes the permeability from basolateral to apical divided by that in the opposite direction, in the common usage. For orientation: AUC(0-t) means the area under the concentration-time curve up to a stated or last time point. A low value points to less exposure. One may read the Cmax as the highest concentration seen after dosing. The inhibition is the share of the control response that was lost under treatment. A high value points to a strong effect.

Chain of MAP kinase-interacting serine/threonine-protein kinase 1 (Q9BUB5 whole entry): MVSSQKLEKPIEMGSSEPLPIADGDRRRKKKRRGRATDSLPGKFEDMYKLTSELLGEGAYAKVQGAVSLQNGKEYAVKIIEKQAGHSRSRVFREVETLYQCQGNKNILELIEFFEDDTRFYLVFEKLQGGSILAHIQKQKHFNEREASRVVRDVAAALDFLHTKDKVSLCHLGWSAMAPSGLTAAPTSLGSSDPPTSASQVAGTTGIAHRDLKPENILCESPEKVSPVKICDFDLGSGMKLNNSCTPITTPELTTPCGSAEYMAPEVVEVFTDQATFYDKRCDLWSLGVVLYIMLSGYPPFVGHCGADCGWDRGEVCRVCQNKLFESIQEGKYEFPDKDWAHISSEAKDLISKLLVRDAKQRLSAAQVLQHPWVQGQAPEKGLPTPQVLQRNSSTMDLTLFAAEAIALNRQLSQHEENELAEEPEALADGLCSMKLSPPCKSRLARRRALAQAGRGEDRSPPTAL
Chain of MAP kinase-interacting serine/threonine-protein kinase 2 (Q9HBH9 whole entry): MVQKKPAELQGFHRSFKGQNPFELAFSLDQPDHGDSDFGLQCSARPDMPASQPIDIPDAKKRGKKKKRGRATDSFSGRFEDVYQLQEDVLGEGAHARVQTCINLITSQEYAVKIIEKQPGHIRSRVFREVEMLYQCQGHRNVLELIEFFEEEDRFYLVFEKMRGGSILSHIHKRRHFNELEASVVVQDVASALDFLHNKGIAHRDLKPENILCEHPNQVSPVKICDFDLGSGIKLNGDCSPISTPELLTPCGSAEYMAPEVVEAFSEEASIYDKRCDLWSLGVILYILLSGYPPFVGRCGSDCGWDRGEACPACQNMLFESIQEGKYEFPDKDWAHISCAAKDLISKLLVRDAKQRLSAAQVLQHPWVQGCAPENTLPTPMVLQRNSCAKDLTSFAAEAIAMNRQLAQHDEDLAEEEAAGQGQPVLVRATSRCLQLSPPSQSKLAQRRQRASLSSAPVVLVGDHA
Chain of Cytochrome P450 2D6 (P10635 whole entry): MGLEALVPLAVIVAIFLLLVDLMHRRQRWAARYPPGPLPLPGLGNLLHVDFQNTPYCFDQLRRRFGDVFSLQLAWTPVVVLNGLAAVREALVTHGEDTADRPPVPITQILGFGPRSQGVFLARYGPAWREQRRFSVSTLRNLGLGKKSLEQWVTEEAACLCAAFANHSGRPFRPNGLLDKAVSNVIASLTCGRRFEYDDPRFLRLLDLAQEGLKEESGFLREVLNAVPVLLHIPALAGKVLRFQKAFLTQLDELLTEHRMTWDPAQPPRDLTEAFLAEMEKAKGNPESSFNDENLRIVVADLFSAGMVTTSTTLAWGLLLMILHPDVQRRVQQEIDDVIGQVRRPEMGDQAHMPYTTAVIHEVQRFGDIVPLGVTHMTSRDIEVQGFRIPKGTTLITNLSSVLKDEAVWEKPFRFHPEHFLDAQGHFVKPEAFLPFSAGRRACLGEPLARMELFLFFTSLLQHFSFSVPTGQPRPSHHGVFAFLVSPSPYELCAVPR
Chain of Cytochrome P450 3A4 (P08684 whole entry): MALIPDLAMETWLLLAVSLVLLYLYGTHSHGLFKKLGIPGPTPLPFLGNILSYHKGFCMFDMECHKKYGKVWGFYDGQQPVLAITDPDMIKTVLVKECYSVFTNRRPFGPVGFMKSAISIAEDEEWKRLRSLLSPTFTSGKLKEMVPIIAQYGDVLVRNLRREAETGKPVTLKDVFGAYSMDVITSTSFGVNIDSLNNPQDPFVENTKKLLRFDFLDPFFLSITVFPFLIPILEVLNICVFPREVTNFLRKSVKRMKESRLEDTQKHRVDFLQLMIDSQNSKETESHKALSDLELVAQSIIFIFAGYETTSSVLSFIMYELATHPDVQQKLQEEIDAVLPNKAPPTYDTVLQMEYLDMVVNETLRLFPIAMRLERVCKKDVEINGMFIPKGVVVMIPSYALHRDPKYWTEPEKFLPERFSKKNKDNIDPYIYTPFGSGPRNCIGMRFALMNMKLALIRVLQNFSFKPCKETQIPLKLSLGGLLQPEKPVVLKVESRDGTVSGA
Chain of Tyrosine-protein kinase ABL1 (Homo sapiens), P00519 [E255K] (P00519 whole entry E255K, the tested form may be a part): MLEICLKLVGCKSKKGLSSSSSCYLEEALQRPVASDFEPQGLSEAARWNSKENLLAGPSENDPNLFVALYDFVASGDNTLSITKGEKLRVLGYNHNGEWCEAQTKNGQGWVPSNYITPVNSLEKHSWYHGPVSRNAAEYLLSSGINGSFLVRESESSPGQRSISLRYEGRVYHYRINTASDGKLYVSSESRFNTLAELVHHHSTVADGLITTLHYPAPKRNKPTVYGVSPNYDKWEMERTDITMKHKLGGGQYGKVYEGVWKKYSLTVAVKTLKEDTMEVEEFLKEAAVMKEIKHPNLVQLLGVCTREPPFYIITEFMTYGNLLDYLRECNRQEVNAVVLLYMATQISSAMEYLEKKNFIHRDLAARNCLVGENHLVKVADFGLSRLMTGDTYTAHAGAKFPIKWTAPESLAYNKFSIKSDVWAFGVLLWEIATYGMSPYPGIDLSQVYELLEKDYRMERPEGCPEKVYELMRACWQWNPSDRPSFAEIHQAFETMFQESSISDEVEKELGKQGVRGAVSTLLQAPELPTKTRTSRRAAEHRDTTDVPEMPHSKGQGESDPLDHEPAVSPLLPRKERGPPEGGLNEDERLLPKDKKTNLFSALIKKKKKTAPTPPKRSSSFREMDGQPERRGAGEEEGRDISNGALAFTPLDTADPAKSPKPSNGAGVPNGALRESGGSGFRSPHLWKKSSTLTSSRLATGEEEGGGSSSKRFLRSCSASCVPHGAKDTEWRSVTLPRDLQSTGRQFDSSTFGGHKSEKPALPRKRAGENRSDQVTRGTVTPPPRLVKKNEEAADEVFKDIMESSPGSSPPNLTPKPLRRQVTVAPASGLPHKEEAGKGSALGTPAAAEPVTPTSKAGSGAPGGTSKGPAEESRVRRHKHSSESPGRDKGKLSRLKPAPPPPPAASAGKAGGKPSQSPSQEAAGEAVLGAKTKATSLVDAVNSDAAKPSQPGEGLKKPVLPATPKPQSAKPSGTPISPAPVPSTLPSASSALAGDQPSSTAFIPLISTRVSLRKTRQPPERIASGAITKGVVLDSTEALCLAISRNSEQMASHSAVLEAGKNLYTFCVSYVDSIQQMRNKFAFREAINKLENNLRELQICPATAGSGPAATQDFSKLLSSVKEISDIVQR
Chain of Dual specificity mitogen-activated protein kinase kinase 1 (Homo sapiens) (Q02750 whole entry, the tested form may be a part): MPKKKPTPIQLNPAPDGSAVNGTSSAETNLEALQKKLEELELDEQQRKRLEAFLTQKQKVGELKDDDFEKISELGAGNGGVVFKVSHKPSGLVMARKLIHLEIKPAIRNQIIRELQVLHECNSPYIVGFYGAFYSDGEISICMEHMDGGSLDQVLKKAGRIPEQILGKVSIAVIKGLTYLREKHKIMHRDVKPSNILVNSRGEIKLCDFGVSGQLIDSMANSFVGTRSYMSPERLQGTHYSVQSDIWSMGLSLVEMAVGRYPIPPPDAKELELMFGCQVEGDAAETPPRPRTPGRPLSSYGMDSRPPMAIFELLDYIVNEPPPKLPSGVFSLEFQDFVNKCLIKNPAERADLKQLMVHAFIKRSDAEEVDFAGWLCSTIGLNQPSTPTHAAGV
Chain of Tyrosine-protein kinase ABL1 (Homo sapiens) (P00519 whole entry, the tested form may be a part): as the sequence (P00519 whole entry E255K, the tested form may be a part) above, with K255E counted along it
Chain of Dual specificity mitogen-activated protein kinase kinase 2 (Homo sapiens) (P36507 whole entry, the tested form may be a part): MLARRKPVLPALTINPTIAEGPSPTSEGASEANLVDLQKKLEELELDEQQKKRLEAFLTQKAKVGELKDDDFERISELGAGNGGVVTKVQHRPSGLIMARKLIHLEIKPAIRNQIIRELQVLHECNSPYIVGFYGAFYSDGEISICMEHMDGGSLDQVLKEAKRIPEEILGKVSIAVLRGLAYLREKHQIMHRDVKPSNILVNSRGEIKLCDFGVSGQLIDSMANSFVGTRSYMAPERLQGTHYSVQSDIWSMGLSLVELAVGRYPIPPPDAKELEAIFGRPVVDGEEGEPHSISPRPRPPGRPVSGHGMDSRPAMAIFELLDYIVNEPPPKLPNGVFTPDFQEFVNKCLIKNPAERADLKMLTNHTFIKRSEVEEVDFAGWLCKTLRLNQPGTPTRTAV
Chain of Dual specificity mitogen-activated protein kinase kinase; MEK1/2 (Homo sapiens) (P36507 whole entry, looked up, the tested form may be a part): as the sequence (P36507 whole entry, the tested form may be a part) above
Chain of Dual specificity mitogen-activated protein kinase kinase; MEK1/2 (Homo sapiens) (Q02750 whole entry, looked up, the tested form may be a part): as the sequence (Q02750 whole entry, the tested form may be a part) above

On to `CN1CCN(C(=O)c2ccc(-c3ccc4ncc(-c5ccc(C#N)cc5)n4c3)cc2)CC1`, for which the IC50 in [1] is greater than 20000 nM; in series [3], 72 nM; in [4], 84 nM; in [8], 3900 nM; in series [9], 229 nM. Besides, in series [2], the logD was 2.48. The fraction unbound at 5 h was 0.003 in series [5] and 0.0967 in [14]. The Papp in [6] was 81.9 ×10⁻⁶ cm/s. The half-life at 1 µM in [7] was 20 min; in [10] it was 11 min. Besides, the Papp A→B in series [11] amounted to 5.43 ×10⁻⁶ cm/s. Moreover, the solubility thermodynamic at 18 h in [12] turned out to be 137 µg/mL (≈ 325 µM). Moreover, the efflux ratio in [13] came to 4.84.
As for `CN1CCN(C(=O)c2ccc(-c3ccc4ncc(-c5ccc(C#N)cc5)n4n3)cc2)CC1`, the IC50 in series [1] is greater than 20000 nM; in series [3] it was 25 nM; in [4], 20 nM; in series [8] it was greater than 20000 nM; in series [9], 326 nM. This compound gave a logD in series [2] of 2.82. Further, the fraction unbound at 5 h in series [5] is 0.001; in [14], 0.041. Also, the Papp in [6] stood at 25 ×10⁻⁶ cm/s. Further, the figures for the half-life at 1 µM in [7] and in series [10] were 17 min and 23 min, respectively. For the same compound, the Papp A→B in series [11] amounted to 14.6 ×10⁻⁶ cm/s. Moreover, the solubility thermodynamic at 18 h in [12] was found to be 86 µg/mL (≈ 204 µM). For the same compound, in series [13], the efflux ratio turned out to be 4.84.
Turning to `N#Cc1ccc(-c2cnc3cnc(-c4ccc(C(=O)N5CCOCC5)cc4)cn23)cc1`, the IC50 in series [1] was greater than 20000 nM; in [3], 454 nM; in series [4], 570 nM; in series [8], greater than 20000 nM; in series [9] it was 748 nM. The compound also yielded a logD in series [2] of 1.77. In addition, the Papp in series [6] is 43.1 ×10⁻⁶ cm/s. Besides, the half-life at 1 µM in series [7] and in series [10] was greater than 60 min throughout. Also, the Papp A→B in [11] was found to be 17.9 ×10⁻⁶ cm/s. For the same compound, in series [12], the solubility thermodynamic at 18 h is 11.1 µg/mL (≈ 27.1 µM). The efflux ratio in series [13] is 1.73.
`CN(C)C1CCN(C(=O)c2ccc(-c3ccc4ncc(-c5ccc(C#N)cc5)n4n3)cc2)CC1`: the AUC(0-t) in series [15] was found to be 347 ng·h/mL. The compound also returned a logD in series [2] of 2.19. The IC50 in series [3] came to 11 nM; in [4], 9 nM; in series [9], 431 nM. Moreover, the Papp in series [6] was 75.3 ×10⁻⁶ cm/s. For the same compound, the results for the half-life at 1 µM in series [7] and in series [10] were 47 min and greater than 60 min, respectively. In series [16], the Cmax was 69 ng/mL. The Papp A→B in series [11] stood at 3 ×10⁻⁶ cm/s. Also, the solubility thermodynamic at 18 h in series [12] is 148 µg/mL (≈ 328 µM). Also, the efflux ratio in [13] was found to be 13.3.
Take `CN(C)C1CCN(C(=O)c2ccc(-c3cn4c(-c5ccc(C#N)cc5)cnc4cn3)cc2)CC1`: the IC50 in [1] was greater than 20000 nM; in [3], 143 nM; in [4] it was 238 nM; in [8], greater than 20000 nM; in series [9], 640 nM. This compound returned a logD in series [2] of 0.73. The Papp in series [6] came out at 64.7 ×10⁻⁶ cm/s. The half-life at 1 µM in series [7] and in series [10] was greater than 60 min throughout. Besides, in series [11], the Papp A→B came out at 1.14 ×10⁻⁶ cm/s. Besides, the solubility thermodynamic at 18 h in series [12] was greater than 45 µg/mL. The efflux ratio in [13] came to 7.57.
`Nc1ncnc2[nH]nc(Nc3ccc(F)cc3)c12`: the inhibition in series [17], in [18], in [19], in series [20], in series [21] and in series [22] was greater than 99% each time.
Consider `NC(=O)c1ccc(-c2cn3c(-c4ccc(O)cc4)cnc3cn2)cc1`, for which the IC50 in [1] was greater than 20000 nM; in series [3], 193 nM; in series [4], 310 nM; in series [8], greater than 20000 nM; in [9], 1080 nM. For the same compound, in series [2], the logD came out at 2.03. Further, the Papp in series [6] came out at 22.7 ×10⁻⁶ cm/s. Further, the half-life at 1 µM in [7] was 60 min; in series [10], 46 min.
Turning to `CN1CCN(C(=O)c2ccc(-c3cn4c(-c5ccc(C(=O)O)cc5)cnc4cn3)cc2)CC1`, the logD in [2] is -1.37. The results for the IC50 in [3], in series [4] and in series [9] were 355 nM, 700 nM and greater than 2500 nM, respectively. The Papp in [6] amounted to 0.1 ×10⁻⁶ cm/s. Also, the solubility thermodynamic at 18 h in [12] is greater than 22 µg/mL.
As for `N#Cc1ccc(-c2cnc3ccc(-c4ccc(C(=O)N5CCNCC5)cc4)nn23)cc1`, the logD in [2] was determined as 2. Further, the IC50 in [3] is 26 nM; in series [4] it was 16 nM; in series [8] it was 5600 nM; in [9], 220 nM. For the same compound, in [6], the Papp was 45.8 ×10⁻⁶ cm/s. Also, the half-life at 1 µM was greater than 60 min in series [7] and 42 min in [10]. The Papp A→B in series [11] is 1.13 ×10⁻⁶ cm/s. For the same compound, in series [12], the solubility thermodynamic at 18 h was determined as 115 µg/mL (≈ 282 µM). Moreover, in [13], the efflux ratio was 29.9.
